Results on three compounds are retold here after paper PMC3602154 (PLoS ONE, 2013).

Assay [1] addresses DOR (Homo sapiens, UniProt P41143). Briefly: PDSP radioligand binding, opioid receptor DOR. From the text: (§1) [17] and http://pdsp.med.unc.edu/UNC-CH%20Protocol%20Book.pdf.
For assay [2], the target named is A3B4 (Rattus norvegicus, UniProt P04757+P12392). Briefly: PDSP radioligand binding, nicotinic receptor α3 ß4.
Text: as §1

For assay [3], the target named is hDAT (Homo sapiens, UniProt Q01959). Briefly: PDSP radioligand binding, dopamine transporter.
hDAT, sequence (Q01959 whole entry): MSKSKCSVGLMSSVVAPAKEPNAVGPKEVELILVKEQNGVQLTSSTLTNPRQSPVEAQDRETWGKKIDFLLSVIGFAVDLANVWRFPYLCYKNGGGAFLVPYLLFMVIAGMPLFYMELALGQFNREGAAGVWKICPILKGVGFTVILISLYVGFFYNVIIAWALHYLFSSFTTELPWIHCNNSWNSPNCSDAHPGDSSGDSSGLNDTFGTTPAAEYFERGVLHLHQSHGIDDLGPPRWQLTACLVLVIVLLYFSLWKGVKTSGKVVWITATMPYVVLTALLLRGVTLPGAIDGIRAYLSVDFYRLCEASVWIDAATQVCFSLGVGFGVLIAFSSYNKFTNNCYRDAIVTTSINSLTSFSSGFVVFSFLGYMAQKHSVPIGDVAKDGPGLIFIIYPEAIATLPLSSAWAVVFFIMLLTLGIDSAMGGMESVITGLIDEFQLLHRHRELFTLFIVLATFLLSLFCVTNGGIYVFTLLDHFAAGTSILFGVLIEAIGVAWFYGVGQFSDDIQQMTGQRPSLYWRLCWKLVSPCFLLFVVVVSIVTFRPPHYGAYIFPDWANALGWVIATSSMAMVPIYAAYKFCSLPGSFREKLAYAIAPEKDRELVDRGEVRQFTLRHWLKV
Text: as §1

Assay [4] addresses NMDA Receptor (MK-801 binding site). Description: PDSP radioligand binding, NMDA receptor. To be noted: for NMDA pKi +/− SD / Ki: Table 2; for Ki: read-out: NMDA (Ki) (converted).
Text: as §1

In assay [5] the target is T1, Alpha2B (Homo sapiens, UniProt P18089).
T1 sequence (P18089 1-450): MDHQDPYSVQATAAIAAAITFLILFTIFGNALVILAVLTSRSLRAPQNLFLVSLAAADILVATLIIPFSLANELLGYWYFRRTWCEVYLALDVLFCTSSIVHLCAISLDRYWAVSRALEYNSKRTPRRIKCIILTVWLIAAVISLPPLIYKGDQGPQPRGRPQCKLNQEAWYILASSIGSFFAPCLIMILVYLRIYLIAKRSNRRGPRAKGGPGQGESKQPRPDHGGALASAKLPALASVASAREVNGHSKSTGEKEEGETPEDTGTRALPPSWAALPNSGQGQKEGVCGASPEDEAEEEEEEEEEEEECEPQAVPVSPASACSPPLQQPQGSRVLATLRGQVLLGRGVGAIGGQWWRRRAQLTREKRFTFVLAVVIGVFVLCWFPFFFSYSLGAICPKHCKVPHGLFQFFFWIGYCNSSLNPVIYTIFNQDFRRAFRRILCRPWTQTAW
Briefly: PDSP radioligand binding, adrenoceptor α2B.
Text: as §1

In assay [6] the target is T2, Alpha2C (Homo sapiens, UniProt P18825).
T2 sequence (P18825 1-462): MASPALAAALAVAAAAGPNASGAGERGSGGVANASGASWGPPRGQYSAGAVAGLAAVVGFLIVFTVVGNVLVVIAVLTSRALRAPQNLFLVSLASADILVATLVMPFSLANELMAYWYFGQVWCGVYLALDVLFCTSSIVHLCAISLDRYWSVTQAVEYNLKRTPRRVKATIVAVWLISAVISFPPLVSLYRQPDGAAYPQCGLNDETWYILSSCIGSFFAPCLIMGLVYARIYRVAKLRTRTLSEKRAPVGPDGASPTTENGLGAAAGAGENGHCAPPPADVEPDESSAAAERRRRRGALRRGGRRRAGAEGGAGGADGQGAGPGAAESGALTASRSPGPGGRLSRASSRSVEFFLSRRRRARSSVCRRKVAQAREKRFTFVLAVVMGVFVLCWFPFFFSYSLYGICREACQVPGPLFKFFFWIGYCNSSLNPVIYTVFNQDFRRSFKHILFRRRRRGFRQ
Description: PDSP radioligand binding, adrenoceptor α2C.
Text: as §1

The target of assay [7] is A4B2 (Rattus norvegicus, UniProt P09483+P12390). Description: PDSP nicotinic receptor A4B2**. The format is binding.
A4B2, sequence (P09483 31-630): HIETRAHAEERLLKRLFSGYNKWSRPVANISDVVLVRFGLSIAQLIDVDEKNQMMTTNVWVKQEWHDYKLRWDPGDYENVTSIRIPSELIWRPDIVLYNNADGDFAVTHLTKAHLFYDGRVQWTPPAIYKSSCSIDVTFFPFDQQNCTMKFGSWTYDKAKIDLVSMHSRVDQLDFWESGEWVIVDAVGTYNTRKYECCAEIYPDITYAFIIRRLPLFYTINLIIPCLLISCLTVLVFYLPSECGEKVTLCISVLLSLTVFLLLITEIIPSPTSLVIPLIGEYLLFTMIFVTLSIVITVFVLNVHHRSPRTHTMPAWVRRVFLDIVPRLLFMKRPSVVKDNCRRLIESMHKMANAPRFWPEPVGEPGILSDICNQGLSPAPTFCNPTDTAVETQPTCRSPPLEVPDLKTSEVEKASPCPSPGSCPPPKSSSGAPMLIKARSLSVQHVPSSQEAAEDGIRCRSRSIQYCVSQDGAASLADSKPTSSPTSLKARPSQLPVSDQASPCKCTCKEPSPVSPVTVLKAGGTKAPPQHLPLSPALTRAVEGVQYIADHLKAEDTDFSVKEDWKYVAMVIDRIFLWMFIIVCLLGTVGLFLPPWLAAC
A4B2, sequence (P12390 25-500): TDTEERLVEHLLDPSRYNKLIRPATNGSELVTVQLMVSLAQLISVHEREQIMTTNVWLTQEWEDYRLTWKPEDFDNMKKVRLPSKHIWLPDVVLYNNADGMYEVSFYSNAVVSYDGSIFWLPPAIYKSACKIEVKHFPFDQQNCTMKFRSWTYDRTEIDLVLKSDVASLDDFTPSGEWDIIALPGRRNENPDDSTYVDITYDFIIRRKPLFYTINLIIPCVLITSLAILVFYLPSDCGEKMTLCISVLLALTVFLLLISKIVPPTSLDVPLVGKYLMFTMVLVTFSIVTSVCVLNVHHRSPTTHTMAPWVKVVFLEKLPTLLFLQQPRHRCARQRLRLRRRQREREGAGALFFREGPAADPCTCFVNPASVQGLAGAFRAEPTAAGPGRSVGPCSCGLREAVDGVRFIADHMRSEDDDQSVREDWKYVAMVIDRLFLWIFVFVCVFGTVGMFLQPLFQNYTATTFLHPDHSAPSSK
Text: as §1

Assay [8] deals with PBR (Homo sapiens, UniProt P30536). Briefly: PDSP radioligand binding, peripheral benzodiazepine receptor.
PBR, sequence (P30536 whole entry, species assumed): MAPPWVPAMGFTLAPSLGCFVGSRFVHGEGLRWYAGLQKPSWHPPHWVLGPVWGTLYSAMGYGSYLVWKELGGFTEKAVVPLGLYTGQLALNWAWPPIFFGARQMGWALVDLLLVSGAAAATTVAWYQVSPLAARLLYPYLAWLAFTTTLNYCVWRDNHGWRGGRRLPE
Text: as §1

For assay [9], the target named is 5-HT1B (Homo sapiens, UniProt P28222). Description: PDSP radioligand binding, serotonin receptor 5-HT1B.
5-HT1B, sequence (P28222 whole entry, species assumed): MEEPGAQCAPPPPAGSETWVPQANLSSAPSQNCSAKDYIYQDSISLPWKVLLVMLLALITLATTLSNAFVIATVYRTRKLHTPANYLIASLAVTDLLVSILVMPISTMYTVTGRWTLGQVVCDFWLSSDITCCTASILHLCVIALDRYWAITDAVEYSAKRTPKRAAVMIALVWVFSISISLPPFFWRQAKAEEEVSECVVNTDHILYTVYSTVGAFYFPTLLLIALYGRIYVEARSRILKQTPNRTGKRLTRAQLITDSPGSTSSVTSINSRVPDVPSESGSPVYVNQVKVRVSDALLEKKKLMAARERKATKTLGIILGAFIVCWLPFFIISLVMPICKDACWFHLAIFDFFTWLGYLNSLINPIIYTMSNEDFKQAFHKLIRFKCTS
Text: as §1

For assay [10], the target named is A2B2 (Rattus norvegicus, UniProt P12389+P12390). Briefly: PDSP radioligand binding, nicotinic receptor α2 ß2.
A2B2, sequence (P12389 28-511): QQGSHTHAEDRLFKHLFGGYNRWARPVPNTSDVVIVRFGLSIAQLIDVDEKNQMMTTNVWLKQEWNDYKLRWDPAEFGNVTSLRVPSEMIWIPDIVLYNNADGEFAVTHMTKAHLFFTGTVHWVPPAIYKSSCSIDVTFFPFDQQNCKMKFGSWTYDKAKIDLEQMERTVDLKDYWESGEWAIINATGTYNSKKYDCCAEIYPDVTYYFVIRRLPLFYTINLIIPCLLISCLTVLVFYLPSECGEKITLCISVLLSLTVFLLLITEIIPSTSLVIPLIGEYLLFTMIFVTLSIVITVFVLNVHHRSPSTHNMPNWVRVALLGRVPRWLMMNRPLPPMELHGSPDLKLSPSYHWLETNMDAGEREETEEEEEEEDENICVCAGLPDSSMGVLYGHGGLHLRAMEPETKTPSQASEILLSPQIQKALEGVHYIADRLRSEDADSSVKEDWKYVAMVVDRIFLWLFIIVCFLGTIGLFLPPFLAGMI
A2B2, sequence (P12390 25-500): as the sequence (P12390 25-500) above
Text: as §1

Assay [11] concerns the target T3, 5-HT1A (Homo sapiens, UniProt P08908).
T3 sequence (P08908 1-422): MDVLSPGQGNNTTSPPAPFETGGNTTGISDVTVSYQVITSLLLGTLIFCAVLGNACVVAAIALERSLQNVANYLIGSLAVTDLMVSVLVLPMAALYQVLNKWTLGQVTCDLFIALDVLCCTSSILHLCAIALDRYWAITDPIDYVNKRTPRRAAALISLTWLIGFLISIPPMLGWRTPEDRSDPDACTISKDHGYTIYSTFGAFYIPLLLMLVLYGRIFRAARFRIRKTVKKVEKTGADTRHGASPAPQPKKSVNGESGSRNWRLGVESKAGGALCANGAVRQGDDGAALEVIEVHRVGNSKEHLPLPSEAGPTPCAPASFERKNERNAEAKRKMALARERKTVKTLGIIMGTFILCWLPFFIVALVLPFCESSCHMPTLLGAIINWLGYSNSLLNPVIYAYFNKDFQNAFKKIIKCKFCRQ
Description: PDSP radioligand binding, serotonin receptor 5-HT1A.
Text: as §1

For assay [12], the target named is T4, Alpha1B (Homo sapiens, UniProt P35368).
T4 sequence (P35368 1-520): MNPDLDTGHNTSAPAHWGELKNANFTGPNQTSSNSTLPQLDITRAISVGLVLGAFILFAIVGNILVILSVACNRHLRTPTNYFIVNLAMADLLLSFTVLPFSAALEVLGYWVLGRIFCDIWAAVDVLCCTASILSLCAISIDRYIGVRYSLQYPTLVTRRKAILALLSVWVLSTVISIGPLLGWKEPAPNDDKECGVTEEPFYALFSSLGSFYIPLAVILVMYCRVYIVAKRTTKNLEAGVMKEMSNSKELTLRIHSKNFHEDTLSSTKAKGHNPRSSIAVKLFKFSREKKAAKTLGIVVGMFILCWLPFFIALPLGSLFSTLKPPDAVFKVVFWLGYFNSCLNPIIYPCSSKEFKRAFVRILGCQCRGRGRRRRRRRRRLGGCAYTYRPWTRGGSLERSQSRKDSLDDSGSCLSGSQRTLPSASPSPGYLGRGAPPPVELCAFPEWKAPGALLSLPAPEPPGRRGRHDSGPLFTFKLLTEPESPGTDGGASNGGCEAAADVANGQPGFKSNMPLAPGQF
Description: PDSP radioligand binding, adrenoceptor α1B.
Text: as §1

For assay [13], the target named is 5-HT2A (Homo sapiens, UniProt P28223). Description: PDSP radioligand binding, serotonin receptor 5-HT2A.
5-HT2A, sequence (P28223 whole entry): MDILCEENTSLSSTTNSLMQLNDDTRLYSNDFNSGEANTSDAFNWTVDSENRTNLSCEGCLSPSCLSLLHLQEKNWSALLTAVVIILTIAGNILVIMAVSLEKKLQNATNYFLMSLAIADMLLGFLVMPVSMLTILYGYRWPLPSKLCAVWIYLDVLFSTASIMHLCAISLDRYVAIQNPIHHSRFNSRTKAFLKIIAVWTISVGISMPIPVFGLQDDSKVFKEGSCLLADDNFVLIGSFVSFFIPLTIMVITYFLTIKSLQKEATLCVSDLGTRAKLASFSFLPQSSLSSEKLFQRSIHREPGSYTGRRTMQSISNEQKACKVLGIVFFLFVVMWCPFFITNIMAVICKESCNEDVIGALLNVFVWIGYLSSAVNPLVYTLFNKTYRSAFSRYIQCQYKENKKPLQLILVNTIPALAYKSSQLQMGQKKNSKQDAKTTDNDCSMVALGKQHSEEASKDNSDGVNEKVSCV
Text: as §1

pKi: −log10 of the molar value. Like-named read-outs stand apart in the source and are kept apart here.

What is called pKi is the negative decadic logarithm of the Ki, by convention in mol/L. What is called Ki is the dissociation constant of the complex between target and ligand, obtained from inhibition or displacement.

A3B4, sequence (P04757 26-499): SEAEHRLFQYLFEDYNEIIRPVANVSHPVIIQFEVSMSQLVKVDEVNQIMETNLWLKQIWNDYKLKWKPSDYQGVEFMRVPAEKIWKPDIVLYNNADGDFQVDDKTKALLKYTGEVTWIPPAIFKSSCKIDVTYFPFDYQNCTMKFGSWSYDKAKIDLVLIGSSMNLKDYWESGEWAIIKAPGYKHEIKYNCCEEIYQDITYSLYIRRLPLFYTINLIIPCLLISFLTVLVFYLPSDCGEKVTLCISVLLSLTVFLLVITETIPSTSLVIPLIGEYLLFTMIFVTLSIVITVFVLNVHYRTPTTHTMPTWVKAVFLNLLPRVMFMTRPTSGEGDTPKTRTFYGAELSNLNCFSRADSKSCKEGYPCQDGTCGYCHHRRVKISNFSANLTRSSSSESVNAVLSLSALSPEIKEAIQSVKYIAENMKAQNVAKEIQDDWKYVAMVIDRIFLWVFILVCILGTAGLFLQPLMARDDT
A3B4, sequence (P12392 21-495): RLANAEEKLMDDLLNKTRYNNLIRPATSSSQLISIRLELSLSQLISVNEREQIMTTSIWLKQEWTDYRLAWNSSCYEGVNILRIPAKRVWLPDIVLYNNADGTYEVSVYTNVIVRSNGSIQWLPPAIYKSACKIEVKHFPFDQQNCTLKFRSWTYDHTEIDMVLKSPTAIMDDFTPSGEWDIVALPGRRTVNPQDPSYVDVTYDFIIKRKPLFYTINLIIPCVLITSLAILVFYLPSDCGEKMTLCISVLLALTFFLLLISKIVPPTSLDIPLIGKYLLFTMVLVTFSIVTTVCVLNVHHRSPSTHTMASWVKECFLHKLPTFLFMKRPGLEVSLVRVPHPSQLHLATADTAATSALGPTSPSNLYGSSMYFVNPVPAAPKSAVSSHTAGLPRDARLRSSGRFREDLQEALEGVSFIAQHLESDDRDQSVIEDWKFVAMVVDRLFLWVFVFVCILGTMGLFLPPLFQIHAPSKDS
DOR, sequence (P41143 whole entry): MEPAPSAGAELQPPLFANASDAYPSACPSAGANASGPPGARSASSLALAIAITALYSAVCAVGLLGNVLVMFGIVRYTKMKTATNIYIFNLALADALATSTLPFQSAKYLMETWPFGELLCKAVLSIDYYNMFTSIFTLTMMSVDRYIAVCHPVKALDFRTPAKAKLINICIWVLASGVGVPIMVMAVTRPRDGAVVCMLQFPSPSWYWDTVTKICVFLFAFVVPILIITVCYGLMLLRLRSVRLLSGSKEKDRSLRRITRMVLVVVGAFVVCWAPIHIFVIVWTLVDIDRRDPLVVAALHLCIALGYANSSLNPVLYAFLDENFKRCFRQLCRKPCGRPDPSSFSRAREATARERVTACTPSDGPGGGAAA

Consider `CCNC1(c2cccc(OC)c2)CCCCC1=O` (racemic) [Methoxetamine, (RS)-2-(ethylamino)-2-(3-methoxyphenyl)cyclohexanone], for which the pKi is < 5.00 in [1]; < 5.00 in assay [2]; < 5.00 in assay [3]; 6.47 in [4] (Figure 3, N = 3 separate determinations, read-out: Ki in NMDA receptor assay); 6.47 in assay [4] (Table S1, unit inferred, read-out: Ki NMDA); < 5.00 in assay [5]. The pKi in assay [6], in [7], in assay [8], in assay [9], in [10] and in assay [11] was < 5.00 each time. Also, the pKi in assay [12] and in assay [13] was < 5.00 throughout.
As to `COc1cccc(C2(N3CCCCC3)CCCCC2)c1` [3-MeO-PCP, 1-[1-(3-methoxyphenyl)cyclohexyl]piperidine], the pKi in [1] is < 5.00; in assay [2], < 5.00; in [3] it was 6.13; in assay [5], < 5.00; in assay [6], < 5.00; in [7] it was < 5.00. In addition, the pKi in assay [8], in assay [9], in [10], in assay [11], in [12] and in assay [13] was < 5.00 each time. In addition, the “NMDA pKi +/− SD” value in assay [4] was found to be 7.69±0.08. In addition, in assay [4], the Ki is 0.02 µM.
For the compound `COc1ccc(C2(N3CCCCC3)CCCCC2)cc1` [4-MeO-PCP, 1-[1-(4-methoxyphenyl)cyclohexyl]piperidine], the pKi in [1], in assay [2], in assay [3], in assay [5], in [6] and in [7] was < 5.00 each time. Also, the pKi in assay [8], in [9], in assay [10], in assay [11], in assay [12] and in assay [13] was < 5.00 throughout. The “NMDA pKi +/− SD” value in [4] worked out at 6.39±0.06. Moreover, the inhibitory constant (Ki) in [4] is 0.404 µM.
